In patent US20240174596A1 (Northwestern University, priority 2021, published 2024):
Counter-ions that a name gives are not always drawn. Like-named read-outs stand apart in the source and are kept apart here. Marks after values point to notes of the source that are not given here.

Key:
[1] = test system: alanine aminotransferase (Ala-AT); conditions: up to 4 mM; cited from earlier work
[2] = test system: aspartate aminotransferase (Asp-AT); conditions: up to 4 mM; cited from earlier work
HCC mouse model = conditions: 0.1 and 1.0 mg/kg; PO; cited from earlier work
hOAT [3] = biological target: T1, hOAT (Homo sapiens, UniProt P04181); assay: Time-dependent inactivation of hOAT; assay type: biochemical; conditions: for kinact/KI: inactivation efficiency; for KI (inactivator concentration for half-maximal inactivation): inhibitor concentration for half-maximal inactivation; for KI (inactivator concentration for half-maximal inactivation) / kinact: mean and standard error
T1 construct: made in house; host or cells: E. coli BL21(DE3)
T1 sequence (P04181 26-439): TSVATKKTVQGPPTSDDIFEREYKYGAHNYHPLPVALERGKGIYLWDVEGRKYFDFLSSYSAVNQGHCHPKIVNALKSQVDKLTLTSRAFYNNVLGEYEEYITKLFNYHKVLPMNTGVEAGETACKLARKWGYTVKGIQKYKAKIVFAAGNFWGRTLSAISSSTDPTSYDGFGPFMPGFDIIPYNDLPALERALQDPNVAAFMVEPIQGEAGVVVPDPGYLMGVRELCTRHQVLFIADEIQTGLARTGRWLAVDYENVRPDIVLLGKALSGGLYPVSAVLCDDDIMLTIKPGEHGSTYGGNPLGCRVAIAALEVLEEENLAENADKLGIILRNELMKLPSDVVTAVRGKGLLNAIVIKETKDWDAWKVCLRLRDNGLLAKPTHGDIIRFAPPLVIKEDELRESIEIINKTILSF
Experimental: (§1) All reagents for enzyme purification and assays were purchased from Sigma-Aldrich (St. Louis, MO, USA). Human OAT (0.672 mg/mL) was purified from E. coli BL21 (DE3) cells following the procedure described above, and coenzyme human recombinant pyrroline 5-carboxylate reductase (PYCRI) were expressed, grown, and purified according to a literature procedure.^4 γ-Aminobutyric acid aminotransferase (GABA-AT, 0.4 mg/mL) was purified from pig brain following a procedure described previously^5, and coenzyme succinic semialdehyde dehydrogenase (SSDH) was purified from GABase (catalog No. G7509-25UN, Sigma-Aldrich), a commercially available mixture of SSDH and GABA-AT, using a known procedure.^6 Commercially available L-aspartate aminotransferase (Asp-AT) from the porcine heart (catalog No. G2751-2KU, Sigma-Aldrich) and the desired assay coenzyme malic dehydrogenase from porcine (catalog No. M2634-5KU, Sigma-Aldrich), and L-alanine aminotransferase (Ala-AT) from the porcine heart (catalog No. G8255-200UN, Sigma-Aldrich) and the desired assay coenzyme lactate dehydrogenase from porcine (catalog No. 427211-50KU, Sigma-Aldrich) were used directly without further purification. All the enzyme assays for the inactivation, partition ratio, and dialysis experiment were recorded on a Synergy H1 hybrid multimode microplate reader (Biotek, USA) with transparent 96-well plates.
Time-dependent inactivation against hOAT was performed using an optimized procedure published previously.^7 10 μL of hOAT (0.025 mg/mL) was preincubated with 10 μL of various concentrations of tested compounds in 100 mM potassium pyrophosphate buffer (pH 8.0, 5 mM α-ketoglutarate, and 5 mM β-mercaptoethanol) at 25° C. in a 96-well plate. At time intervals, 80 μL of assay solution containing PYCR^1 (0.5 μg), 1 mM NADH, and 25 mM L-ornithine in the abovementioned potassium pyrophosphate buffer were added to the incubation mixture and assayed for OAT activity at 37° C. for 30 min. The change in UV absorbance at 340 nm at 37° C. based on the conversion of NADH to NAD was monitored by a microplate reader. All assays were performed in duplicate, and the remaining OAT activity at each preincubation time at each inhibitor concentration was averaged. The natural logarithm of the percentage of the remaining OAT activity was plotted against the preincubation time at each inhibitor concentration to obtain the kobs (slope) value for each concentration. The kobs value is the rate constant describing the inactivation at each inhibitor concentration. kobs is replotted against the inhibitor concentration using nonlinear regression analysis using GraphPad Prism 8.0. K1 and kinact values were estimated from equation (1)
where kinact is the maximal rate of inactivation, K1 is the inhibitor concentration required for half-maximal inactivation, and [I] is the preincubation concentration of the tested compound.

GABA-AT [4] = biological target: T2, GABA-AT (Sus scrofa, UniProt P80147); assay: Reversible inhibition of GABA-AT (coupled assay with SSDH); assay type: biochemical, pig; set-up: was purified from pig brain following a procedure described previously; from tissue; host or cells: pig brain; conditions: for Ki: Ki = IC50/(1 + [S]/Km), 9-point assay
T2 sequence (P80147 29-500): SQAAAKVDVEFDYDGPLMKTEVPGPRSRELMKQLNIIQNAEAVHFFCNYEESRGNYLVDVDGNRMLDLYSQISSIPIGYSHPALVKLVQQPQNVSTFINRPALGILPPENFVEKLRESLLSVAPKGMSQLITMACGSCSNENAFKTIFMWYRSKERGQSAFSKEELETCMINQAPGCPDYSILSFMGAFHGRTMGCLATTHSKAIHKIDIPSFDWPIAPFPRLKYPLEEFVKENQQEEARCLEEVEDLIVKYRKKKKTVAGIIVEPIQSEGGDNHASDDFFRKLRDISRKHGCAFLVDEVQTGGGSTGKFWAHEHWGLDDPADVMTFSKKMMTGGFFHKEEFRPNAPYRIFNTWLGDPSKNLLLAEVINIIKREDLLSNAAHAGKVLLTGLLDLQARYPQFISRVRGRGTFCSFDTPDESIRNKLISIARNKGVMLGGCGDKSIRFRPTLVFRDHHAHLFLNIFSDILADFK
Experimental: as §1
96-well plates were loaded with 80 μL of an assay mixture containing excess SSDH, 1 mM NADP^+, 11.1 mM GABA, and 10 μL of various concentrations of the tested compounds in 50 mM potassium pyrophosphate buffer (pH 8.5, 5 mM α-ketoglutarate, and 5 mM β-mercaptoethanol). […] The microplate was shaken at 25° C. for 1 min, and the remaining enzyme activity was determined by observing the change in absorbance at 340 nm at 25° C. based on the conversion of NADP^+ to NADPH. […] Subsequent Ki values were determined using equation (2) All assays were performed in duplicate.

hOAT [5] = biological target: T1, hOAT; conditions: data extracted from Reference 9; cited from earlier work
hOAT [6] = biological target: T1, hOAT; conditions: data extracted from Reference 9; cited from earlier work; remark: listed apart in the source
hOAT [7] = biological target: T1, hOAT; assay: Fluoride ion release assay; assay type: biochemical; conditions: without α-KG; triplicate, mean with standard deviation
Experimental: The fluoride ion release assay was conducted using previous protocols.^10 The final concentration of enzyme in the sample was determined via BCA protein assay kit (Pierce, cat: 23225). A calibration curve of voltage (V, mV) was generated from varying concentrations of NaF (F, μM). For accurate detection of fluoride ion concentration, 10 μM of fluoride ion was added to each control and sample The number of fluoride ions released per active site was calculated by the ratio of the fluoride ion release concentration and enzyme concentration.

hOAT [8] = biological target: T1, hOAT; assay: Partition ratio experiment (titration of hOAT); assay type: biochemical; conditions: in the presence of α-KG
Experimental: FIG. 9. Titration of hOAT with SS-1-148. The loss of enzyme activity was measured as a function of the ratio of […] to enzyme concentration. Linear regression was used on the linear portion of the curves to obtain the X-intercept, which was the turnover number (partition ratio=turnover number−1).
The partition ratio was calculated using previous protocols.^8-10

hOAT [9] = biological target: T1, hOAT; conditions: literature; cited from earlier work
GABA-AT [10] = biological target: T2, GABA-AT; conditions: literature, cited from earlier work

In the case of `N[C@H]1C[C@@H](C(=O)O)CC1=C(C(F)(F)F)C(F)(F)F` [BCF3, (1S,3S)-3-Amino-4-(hexafluoropropan-2-ylidenyl)-cyclopentane-1-carboxylic Acid], the “inhibition on alanine aminotransferase (Ala-AT)” value [1] is listed as “no inhibition”, the “inhibition on aspartate aminotransferase (Asp-AT)” value [2] is listed as “no inhibition” and the “serum AFP levels” value (HCC mouse model) is listed as “remarkably decreased”. For the same molecule, the tumor growth (HCC mouse model) was “inhibited tumor growth”, the kinact/KI (hOAT [3]) was 16.7 M⁻¹ s⁻¹ and the KI (inactivator concentration for half-maximal inactivation) (hOAT [3]) was 90 ± 30 µM. For the same molecule, the kinact (hOAT [3]) was 0.0015 s⁻¹, the Ki (GABA-AT [4]) was 5160 µM and the Fluoride ion release (hOAT [5]) was 79^b. For the same molecule, the Partition ratio (hOAT [6]) was 12^b.
Work on `N[C@H]1C[C@@H](C(=O)O)CC1(F)F` [Compound 4, (1R,4S)-4-Amino-3,3-difluorocyclopentanecarboxylic acid hydrochloric acid salt, reference compound] yielded a Fluoride ion release (hOAT [7]) of 3395± 31.
`N[C@H]1CC(C(=O)O)=CC1(F)F` [Compound 5, (S)-4-Amino-3,3-difluorocyclopent-1-enecarboxylic acid] gave a Fluoride ion release (hOAT [7]) of 754 ± 57, a Partition ratio (hOAT [8]) of 817 and a kinact/KI (hOAT [3]) of 0.233 M⁻¹ s⁻¹. The KI (inactivator concentration for half-maximal inactivation) (hOAT [3]) was 2130 ± 900 µM, the kinact (hOAT [3]) was 0.0005 s⁻¹ and the “inhibitory activity against GABA-AT weaker than cyclopentane-based 4” value (GABA-AT [4]) was “about 10 times”. For the same molecule, the Ki (GABA-AT [4]) was 1340 µM.
For `N[C@H]1C=C(C(=O)O)CCC1(F)F` [WZ-2-051, (S)-3-amino-4,4-difluorocyclohex-1-enecarboxylic acid], the “improvement in inactivation efficiency (kinact/K1 ratio) against hOAT compared to BCF3” value (hOAT [9]) is listed as 23 fold, the “selectivity over GABA-AT” value (GABA-AT [10]; hOAT over GABA-AT) is listed as 13.3 fold and the “type of inhibition on GABA-AT” value (GABA-AT [10]) is listed as “apparent irresponsible inhibition”.
